# Experiments:
# [1] = Deodorization effect on ammonia odor (dessicator, Kitagawa type gas detector); details: 250 mg base agent, 50 mg of 1% ammonia aqueous solution, 2.5 liter dessicator, 20 minutes; relative to blank 1
# Procedure: Into a schale having a diameter of 4 cm was added 250 mg of the deodorant base agents obtained in Reference Examples 1 and 2, and 50 mg of a 1% ammonia aqueous solution was dropped thereon. The above-mentioned schale was allowed to stand still in a 2.5 liter dessicator for 20 minutes, then, the ammonia concentration (S) was measured by a Kitagawa type gas detector. Further, a schale containing no deodorant base agent was used as a blank 1 and a schale containing 250 mg of water added instead of a deodorant base agent was used as a blank 2, and the ammonia concentration was measured likewise. The ammonia concentration of the blank 1 was represented by C, and the deodorization rate was calculated according to the following formula. As Comparative Example 1, the deodorization effect on an ammonia odor was measured likewise in Example 1 using 250 mg of a solution obtained by dissolving 28 g (0.116 mol) of lauryl methacrylate which is a known deodorant base agent in 115 g of diethylene glycol monoethyl ether.
# (Measurement Method of Deodorization Ratio)
# Deodorization rate (%)=[(C−S)/C]×100
# S: ammonia gas concentration after 20 minutes (ppm)
# C: ammonia gas concentration of blank 1 (ppm)
# [2] = Deodorization effect on mercaptan (sensory evaluation, filter paper in beaker); details: 150 mg base agent, 50 mg 0.0002% methylmercaptan in propylene glycol; after 20 minutes; grades 0 to 3 (initial odor = 3), average of three examiners
# Procedure: Filter paper having a length of 7 cm and a width of 0.5 cm was impregnated with 150 mg of a deodorant base agent, subsequently, the same filter paper was impregnated with 50 mg of a 0.0002% solution of methylmercaptan in propylene glycol. The filter paper was placed in erected condition in a 3 liter beaker and wrapping film was covered on it and left for 20 minutes, then, a odor filling the beaker was subjected to sensory evaluation. The strength of the odor of methylmercaptan at the initial was defined as 3, and odors after 20 minutes were evaluated by three examiners based on four grades from 0 to 3, and the average value thereof was calculated and the first decimal was rounded off to give a deodorization effect.
# [3] = Deodorization effect on lower fatty acid (sensory evaluation); details: 150 mg of 1% aqueous lower fatty acid mixture 20/60/20; after 20 minutes; grades 0 to 3 (initial odor = 3), average of three examiners
# [4] = acid dissociation index (pK1, pK2) at 25° C.; type: physicochemical; details: for first acid dissociation index / second acid dissociation index: for the dibasic acid, source of value not given
# Procedure: The organic dibasic acid used as a deodorant in the present invention is selected from organic dibasic acids and/or salts thereof having a difference between the first acid dissociation index and the second acid dissociation index of 1.7 or more at 25° C. (hereinafter, described as deodorant organic dibasic acid). The acid dissociation index can be measured, for example, by a method (A) described in The Journal of Physical Chemistry vol.
# Further, previously obtained data may also be used. […] Further, the organic dibasic acid can be selected based on data bases (D) such as pKa BASE of Compudrug, and the like. The first acid dissociation index and the second acid dissociation index of the organic dibasic acid may be determined by any of the methods (A) to (D).
SMILES,Deodorization rate [1] [%],Evaluation of odor [2],Evaluation of odor [3],first acid dissociation index [4],second acid dissociation index [4],difference of acid dissociation index ([4]; given in running text)
"C=C(C)C(=O)OCCCCCCCCCCCC [Comparative Example 1, lauryl methacrylate, reference compound]",10,3,2,,,
"O=C1OC(=O)C2C3C=CC(C3)C12 (centres unmarked) [Deodorant base agent 2, 5-norbornene-2,3-dicarboxylic acid anhydride]",88,1,1,4.16,6.23,
"O=C(O)[C@H]1CCCC[C@H]1C(=O)O [Deodorant base agent 1, cis-cyclohexane-1,2-dicarboxylic acid]",79,2,1,,,
"O=C(O)CCC(=O)O [Comparative Example 2, succinic acid, reference compound]",33,3,2,4.00,5.25,less than 1.7

# Source: patent US6780403B1, “Deodorants” (Kao Corporation, priority 1999, dated 2004)
